Biological target: T1, ER protein (Homo sapiens, UniProt P03372)
T1 sequence (P03372 1-595): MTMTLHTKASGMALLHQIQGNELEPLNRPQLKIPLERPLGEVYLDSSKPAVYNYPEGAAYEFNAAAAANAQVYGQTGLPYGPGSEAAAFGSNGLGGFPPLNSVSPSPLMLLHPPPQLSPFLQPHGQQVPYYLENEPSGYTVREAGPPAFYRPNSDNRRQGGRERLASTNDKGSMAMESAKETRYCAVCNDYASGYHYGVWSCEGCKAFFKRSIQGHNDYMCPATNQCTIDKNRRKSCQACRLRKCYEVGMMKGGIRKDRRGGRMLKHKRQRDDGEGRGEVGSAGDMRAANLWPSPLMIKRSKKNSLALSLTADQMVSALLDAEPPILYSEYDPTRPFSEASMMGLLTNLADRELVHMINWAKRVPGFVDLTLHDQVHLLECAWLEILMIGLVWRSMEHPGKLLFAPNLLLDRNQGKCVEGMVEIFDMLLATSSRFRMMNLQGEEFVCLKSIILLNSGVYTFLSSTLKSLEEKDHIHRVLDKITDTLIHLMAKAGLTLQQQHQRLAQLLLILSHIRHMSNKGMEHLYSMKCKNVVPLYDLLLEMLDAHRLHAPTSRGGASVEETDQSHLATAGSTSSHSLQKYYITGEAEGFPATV
Experiment: Western blotting analysis of ER protein degradation in T47D cell line
Type: cell-based
Parameters: western blotting detection of the level of intracellular ER protein; endogenous in cells; host or cells: T47D
Conditions: degradation of ER protein, T47D cells, drug treatment for 16 hours, Western blot gray values vs DMSO control; read-out: DC50 (nM)/T47Dcell line
Description: T47D cells were cultured in an incubator with 5% CO2 at 37° C. Complete medium was RPMI1640 supplemented with 10% Foetal bovine serum (FBS), 100 U/ml Penicillin and Streptomycin, and 0.77 μg/mL recombinant human insulin. Western blotting analysis of T47D cell line: • Cells were plated in a 24-well plate at a cell seeding […] of 1.5×10^5 cells/mL, with 1 ml cell suspensions per well. • After 24 h the cells were adherent, and the cells in each well were treated with 1 μL a certain concentration of ER protein regulators of the present disclosure. […] Afterwards, the membranes were block by using the Blocking Buffer, and the antibody incubation and development were performed. (The above procedures were all based on the antibody product manual of the manufacturer) DC50 value (the drug concentration required for degrading proteins by 50%, abbreviated as DC50) reads method: comparing the gray values of the Western blotting bands for the drug treatment with the gray values of the Western blotting band for the DMSO control, and reading the drug concentration range corresponding to the gray value of the Western blotting bands for the drug treatment which is equal to half of the gray value of the Western blotting band for the DMSO control. DC50 value could also be calculated as follows: using software ImageJ to quantify the gray values of the Western blotting bands for the drug treatment, fitting the relationship curve between drug concentrations and gray values, and from the fitted curve, calculating the drug concentration corresponding to half of the gray value of the Western blotting band for the DMSO control.

| SMILES | DC50 [nM] |
| --- | --- |
| Cc1ncsc1-c1ccc(CNC(=O)[C@@H]2C[C@@H](O)CN2C(=O)[C@@H](NC(=O)CCOCCOCCOCCOCCOCCC(=O)N(C)CCOc2ccc(/C(=C(/CCCl)c3ccccc3)c3ccccc3)cc2)C(C)(C)C)cc1 [SIAIS180022, N1-(2-(4-((Z)-4-chloro-1,2-diphenylbut-1-en-1-yl)phenoxy)ethyl)-N19-((S)-1-((2S,4R)-4-hydroxy-2-((4-(4-methylthiazol-5-yl)benzyl)carbamoyl)pyrrolidin-1-yl)-3,3-dimethyl-1-oxobutan-2-yl)-N1-methyl-4,7,10,13,16-pentaoxanonadecanediamide] | < 50 |
| Cc1ncsc1-c1ccc(CNC(=O)[C@@H]2C[C@@H](O)CN2C(=O)[C@@H](NC(=O)CCOCCOCCC(=O)N(C)CCOc2ccc(/C(=C(/CCCl)c3ccccc3)c3ccccc3)cc2)C(C)(C)C)cc1 [SIAIS180023, (2S,4R)-1-((S)-2-(tert-butyl)-16-(4-((Z)-4-chloro-1,2-diphenylbut-1-en-1-yl)phenoxy)-14-methyl-4,13-dioxo-7,10-dioxa-3,14-diazahexadecanoyl)-4-hydroxy-N-(4-(4-methylthiazol-5-yl)benzyl)pyrrolidine-2-carboxamide] | < 50 |
| Cc1ncsc1-c1ccc(CNC(=O)[C@@H]2C[C@@H](O)CN2C(=O)[C@@H](NC(=O)CCOCCOCCOCCC(=O)N(C)CCOc2ccc(/C(=C(/CCCl)c3ccccc3)c3ccccc3)cc2)C(C)(C)C)cc1 [SIAIS180024, (2S,4R)-1-((S)-2-(tert-butyl)-19-(4-((Z)-4-chloro-1,2-diphenylbut-1-en-1-yl)phenoxy)-17-methyl-4,16-dioxo-7,10,13-trioxa-3,17-diazanonadecanoyl)-4-hydroxy-N-(4-(4-methylthiazol-5-yl)benzyl)pyrrolidine-2-carboxamide] | < 50 |
| Cc1ncsc1-c1ccc(CNC(=O)[C@@H]2C[C@@H](O)CN2C(=O)[C@@H](NC(=O)CCOCCOCCOCCOCCC(=O)N(C)CCOc2ccc(/C(=C(/CCCl)c3ccccc3)c3ccccc3)cc2)C(C)(C)C)cc1 [SIAIS180025, N1-(2-(4-((Z)-4-chloro-1,2-diphenylbut-1-en-1-yl)phenoxy)ethyl)-N16-((S)-1-((2S,4R)-4-hydroxy-2-((4-(4-methylthiazol-5-yl)benzyl)carbamoyl)pyrrolidin-1-yl)-3,3-dimethyl-1-oxobutan-2-yl)-N1-methyl-4,7,10,13-tetraoxahexadecanediamide] | < 50 |
| Cc1ncsc1-c1ccc(CNC(=O)[C@@H]2C[C@@H](O)CN2C(=O)[C@@H](NC(=O)CCCCCC(=O)N(C)CCOc2ccc(/C(=C(/CCCl)c3ccccc3)c3ccccc3)cc2)C(C)(C)C)cc1 [SIAIS180029, N1-(2-(4-((Z)-4-chloro-1,2-diphenylbut-1-en-1-yl)phenoxy)ethyl)-N7-((S)-1-((2S,4R)-4-hydroxy-2-((4-(4-methylthiazol-5-yl)benzyl)carbamoyl)pyrrolidin-1-yl)-3,3-dimethyl-1-oxobutan-2-yl)-N1-methylheptanediamide] | 100 |
| Cc1ncsc1-c1ccc(CNC(=O)[C@@H]2C[C@@H](O)CN2C(=O)[C@@H](NC(=O)CCCCCCC(=O)N(C)CCOc2ccc(/C(=C(/CCCl)c3ccccc3)c3ccccc3)cc2)C(C)(C)C)cc1 [SIAIS180033, N1-(2-(4-((Z)-4-chloro-1,2-diphenylbut-1-en-1-yl)phenoxy)ethyl)-N8-((S)-1-((2S,4R)-4-hydroxy-2-((4-(4-methylthiazol-5-yl)benzyl)carbamoyl)pyrrolidin-1-yl)-3,3-dimethyl-1-oxobutan-2-yl)-N1-methyloctanediamide] | < 50 |
| Cc1ncsc1-c1ccc(CNC(=O)[C@@H]2C[C@@H](O)CN2C(=O)[C@@H](NC(=O)CCCCCCCC(=O)N(C)CCOc2ccc(/C(=C(/CCCl)c3ccccc3)c3ccccc3)cc2)C(C)(C)C)cc1 [SIAIS180035, N1-(2-(4-((Z)-4-chloro-1,2-diphenylbut-1-en-1-yl)phenoxy)ethyl)-N9-((S)-1-((2S,4R)-4-hydroxy-2-((4-(4-methylthiazol-5-yl)benzyl)carbamoyl)pyrrolidin-1-yl)-3,3-dimethyl-1-oxobutan-2-yl)-N1-methylnonanediamide] | < 200 |
| Cc1ncsc1-c1ccc(CNC(=O)[C@@H]2C[C@@H](O)CN2C(=O)[C@@H](NC(=O)CCCCCCCCC(=O)N(C)CCOc2ccc(/C(=C(/CCCl)c3ccccc3)c3ccccc3)cc2)C(C)(C)C)cc1 [SIAIS180036, N1-(2-(4-((Z)-4-chloro-1,2-diphenylbut-1-en-1-yl)phenoxy)ethyl)-N10-((S)-1-((2S,4R)-4-hydroxy-2-((4-(4-methylthiazol-5-yl)benzyl)carbamoyl)pyrrolidin-1-yl)-3,3-dimethyl-1-oxobutan-2-yl)-N1-methyldecanediamide] | < 200 |
| Cc1ncsc1-c1ccc(CNC(=O)[C@@H]2C[C@@H](O)CN2C(=O)[C@@H](NC(=O)CCN2CCN(CCC(=O)NCCOc3ccc(C(=C(CCCl)c4ccccc4)c4ccc(O)cc4)cc3)CC2)C(C)(C)C)cc1 [SIAIS208107, (2S,4R)-1-((S)-2-(3-(4-(3-((2-(4-(4-chloro-1-(4-hydroxyphenyl)-2-phenylbut-1-en-1-yl)phenoxy)ethyl)amino)-3-oxopropyl)piperazin-1-yl)propanamido)-3,3-dimethylbutanoyl)-4-hydroxy-N-(4-(4-methylthiazol-5-yl)benzyl)pyrrolidine-2-carboxamide] | < 200 |
| Cc1ncsc1-c1ccc(CNC(=O)[C@@H]2C[C@@H](O)CN2C(=O)[C@@H](NC(=O)CCc2ccc(CCC(=O)N(C)CCOc3ccc(/C(=C(/CCCl)c4ccccc4)c4ccccc4)cc3)cc2)C(C)(C)C)cc1 [SIAIS208125, (2S,4R)-1-((S)-2-(3-(4-(3-((2-(4-((Z)-4-chloro-1,2-diphenylbut-1-en-1-yl)phenoxy)ethyl)(methyl)amino)-3-oxopropyl)phenyl)propanamido)-3,3-dimethylbutanoyl)-4-hydroxy-N-(4-(4-methylthiazol-5-yl)benzyl)pyrrolidine-2-carboxamide] | < 200 |
| Cc1ncsc1-c1ccc(CNC(=O)[C@@H]2C[C@@H](O)CN2C(=O)[C@@H](NC(=O)CCc2ccc(CCC(=O)NCCOc3ccc(C(=C(CCCl)c4ccccc4)c4ccc(O)cc4)cc3)cc2)C(C)(C)C)cc1 [SIAIS208127, (2S,4R)-1-((S)-2-(3-(4-(3-((2-(4-(4-chloro-1-(4-hydroxyphenyl)-2-phenylbut-1-en-1-yl)phenoxy)ethyl)amino)-3-oxopropyl)phenyl)propanamido)-3,3-dimethylbutanoyl)-4-hydroxy-N-(4-(4-methylthiazol-5-yl)benzyl)pyrrolidine-2-carboxamide] | < 100 |
| CN(CCOc1ccc(/C(=C(/CCCl)c2ccccc2)c2ccccc2)cc1)C(=O)CCN1CCN(CCNc2cccc3c2C(=O)N(C2CCC(=O)NC2=O)C3=O)CC1 (stereo not drawn) [SIAIS208135, (Z)-N-(2-(4-(4-chloro-1,2-diphenylbut-1-en-1-yl)phenoxy)ethyl)-3-(4-(2-((2-(2,6-dioxopiperidin-3-yl)-1,3-dioxoisoindolin-4-yl)amino)ethyl)piperazin-1-yl)-N-methylpropanamide] | < 200 |
| O=C(CCCCNc1cccc2c1C(=O)N(C1CCC(=O)NC1=O)C2=O)NCCOc1ccc(C(=C(CCCl)c2ccccc2)c2ccc(O)cc2)cc1 (stereo not drawn) [SIAIS208144, N-(2-(4-(4-chloro-1-(4-hydroxyphenyl)-2-phenylbut-1-en-1-yl)phenoxy)ethyl)-5-((2-(2,6-dioxopiperidin-3-yl)-1,3-dioxoisoindolin-4-yl)amino)pentanamide] | < 100 |
| O=C(CCCCCCNc1cccc2c1C(=O)N(C1CCC(=O)NC1=O)C2=O)NCCOc1ccc(C(=C(CCCl)c2ccccc2)c2ccc(O)cc2)cc1 (stereo not drawn) [SIAIS208145, N-(2-(4-(4-chloro-1-(4-hydroxyphenyl)-2-phenylbut-1-en-1-yl)phenoxy)ethyl)-7-((2-(2,6-dioxopiperidin-3-yl)-1,3-dioxoisoindolin-4-yl)amino)heptanamide] | < 100 |
| CCC(=C(c1ccc(O)cc1)c1ccc(OCCNC(=O)CCCCCCCC(=O)N[C@H](C(=O)N2C[C@H](O)C[C@H]2C(=O)NCc2ccc(-c3scnc3C)cc2)C(C)(C)C)cc1)c1ccc(O)cc1 [SIAIS208167, N1-(2-(4-(1,2-bis(4-hydroxyphenyl)but-1-en-1-yl)phenoxy)ethyl)-N9-((S)-1-((2S,4R)-4-hydroxy-2-((4-(4-methylthiazol-5-yl)benzyl)carbamoyl)pyrrolidin-1-yl)-3,3-dimethyl-1-oxobutan-2-yl)nonanediamide] | < 50 |

Source: patent US20220016102A1, “ER PROTEIN REGULATORS AND USE THEREOF” (ShanghaiTech University, priority 2018, published 2022)
